Measurements published in patent US11591341B2 (ALIGOS THERAPEUTICS, INC., priority 2019, dated 2023).

Test system: HBV
Test: HBV-DNA Antiviral Assay Using HepG2.117 Cells (intracellular HBV DNA by qPCR)
Type: cell-based, hepatitis B virus (genotype D)
Details: HBV DNA inhibition, HepG2.117 cells, intracellular HBV DNA by qPCR (Table 4); read-out: EC50
Summary of the method: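 Endpoint: qPCR copy number of intracellular HBV DNA after 3-day compound exposure, with inhibition set relative to the 2% DMSO control. The cells were doxycycline-free HepG2.117 carrying a Tet-off genotype D genome, dosed at nine 4-fold dilutions. A duplicate plate gave ATP-based viability (CC50).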

**Q.** Which EC50 does the source give for “13-benzyl-4-(4-bromo-3-chloro- benzoyl)-11-methylene-4,7,9,13- tetrazatricyclo[7.5.0.0^2,7]tetradec-1- ene-8.14-dione [Example 109]” here?
**A.** 100 to 500 nM

Same assay, conditions: Hepatitis B virus, HepG2.117

**Q.** How did the EC50 turn out when N#Cc1cc(C(=O)N2CCn3c(c(C(=O)NCc4ccccc4-c4cccnn4)n(-c4ccc(OC5CC5)cc4)c3=O)C2)ccc1Br [Example 445, 7-(4-bromo-3-cyano-benzoyl)-2-[4-(cyclopropoxy)phenyl]-3-oxo-N-[(2-pyridazin-3-ylphenyl)methyl]-6,8-dihydro-5H-imidazo[1,5-a]yprazine-1-carboxamide] was run?
**A.** 100 to 500 nM

**Q.** For O=C(NCc1cccc2[nH]cnc12)c1c2n(c(=O)n1-c1ccc(OCC(F)(F)F)cc1)CCN(C(=O)c1ccc(Br)c(Cl)c1)C2 [Example 368, N-(1H-benzimidazol-4-ylmethyl)-7-(4-bromo-3-chloro-benzoyl)-3-oxo-2-[4-(2,2,2-trifluoroethoxy)phenyl]-6,8-dihydro-5H-imidazo[1,5-a]pyrazine-1-carboxamide], which EC50 is on record?
**A.** 500 to 5000 nM

**Q.** With COc1ccc([C@H](C)NC(=O)c2c3n(c(=O)n2-c2ccc(OC4CC4)cc2)CC(C)N(C(=O)c2ccc(Br)c(Cl)c2)C3)cc1 (mixture of isomers) [Example 437, (6RS)-7-(4-bromo-3-chloro-benzoyl)-2-[4-(cyclopropoxy)phenyl]-N-[(1S)-1-(4-methoxyphenyl)ethyl]-6-methyl-3-oxo-6,8-dihydro-5H-imidazo[1,5-a]pyrazine-1-carboxamide] as the compound, how does the EC50 read?
**A.** 500 to 5000 nM

**Q.** Which EC50 does the source give for O=C(NCc1ccccc1-n1ccnc1)c1c2n(c(=O)n1-c1ccc(OCC(F)(F)F)cc1)CCN(C(=O)c1ccc(Br)c(Cl)c1)C2 [Example 263, 7-(4-bromo-3-chloro-benzoyl)-N-[(2-imidazol-1-ylphenyl)methyl]-3-oxo-2-[4-(2,2,2-trifluoroethoxy)phenyl]-6,8-dihydro-5H-imidazo[1,5-a]pyrazine-1-carboxamide] here?
**A.** 500 to 5000 nM

**Q.** For O=C(NCc1ccccc1-n1cncn1)c1c2n(c(=O)n1-c1ccc(OCC(F)(F)F)cc1)CCN(C(=O)c1ccc(Br)c(Cl)c1)C2 [Example 304, 7-(4-bromo-3-chloro-benzoyl)-3-oxo-N-[[2-(1,2,4-triazol-1-yl)phenyl]methyl]-2-[4-(2,2,2-trifluoroethoxy)phenyl]-6,8-dihydro-5H-imidazo[1,5-a]pyrazine-1-carboxamide], which EC50 is on record?
**A.** < 100 nM

**Q.** With C[C@@H](NC(=O)c1c2n(c(=O)n1-c1ccc(OCC(F)(F)F)cc1)CCN(C(=O)c1ccc(Br)c(Cl)c1)C2)c1ccc(OCC(N)=O)cc1-n1cccn1 (stereo in doubt) [Example 381, 7-(4-bromo-3-chloro-benzoyl)-3-oxo-N-[rac-(1R)-1-[4-(2-amino-2-oxo-ethoxy)-2-pyrazol-1-yl-phenyl]ethyl]-2-[4-(2,2,2-trifluoroethoxy)phenyl]-6,8-dihydro-5H-imidazo[1,5-a]pyrazine-1-carboxamide] as the compound, how does the EC50 read?
**A.** > 5000 nM

**Q.** How did the EC50 turn out when CC(NC(=O)c1c2n(c(=O)n1-c1ccc(OC3CC3)cc1)CCN(C(=O)c1ccc(Br)c(Cl)c1)C2)c1ccc(OCC(N)=O)cc1-n1cccn1 (racemic) [Example 379, 7-(4-bromo-3-chloro-benzoyl)-2-[4-(cyclopropoxy)phenyl]-3-oxo-N-[rac-(1R)-1-[4-(2-amino-2-oxo-ethoxy)-2-pyrazol-1-yl-phenyl]ethyl]-6,8-dihydro-5H-imidazo[1,5-a]pyrazine-1-carboxamide] was run?
**A.** > 5000 nM

**Q.** O=C(NCc1ccccc1-c1ccncn1)c1c2n(c(=O)n1-c1ccc(OC3CC3)cc1)CCN(C(=O)c1ccc(Br)c(Cl)c1)C2 [Example 424, 7-(4-bromo-3-chloro-benzoyl)-2-[4-(cyclopropoxy)phenyl]-3-oxo-N-[(2-pyrimidin-4-ylphenyl)methyl]-6,8-dihydro-5H-imidazo[1,5-a]pyrazine-1-carboxamide] was tested. Which EC50 did it give?
**A.** < 100 nM

**Q.** CC(C)Oc1ccc(-n2c(C(=O)NCc3ccc(C(F)F)cc3)c3n(c2=O)CCN(C(=O)c2ccc(Br)c(Cl)c2)C3)cc1 [Example 243, 7-(4-bromo-3-chloro-benzoyl)-N-[[4-(difluoromethyl)phenyl]methyl]-2-(4-isopropoxyphenyl)-3-oxo-6,8-dihydro-5H-imidazo[1,5-a]pyrazine-1-carboxamide] was tested. Which EC50 did it give?
**A.** 100 to 500 nM

**Q.** Which EC50 does the source give for O=C(c1ccc(Br)c(Cl)c1)N1CCn2c(c3n(c2=O)CC2(COC2)CN(Cc2ccccc2)C3=O)C1 [Example 239, 13-benzyl-4-(4-bromo-3-chloro-benzoyl)spiro[4,7,9,13-tetrazatricyclo[7.5.0.0 2,7]tetradec-1-ene-11,3′-oxetane]-8,14-dione] here?
**A.** 500 to 5000 nM

**Q.** C[C@@H](NC(=O)c1c2n(c(=O)n1-c1ccc(OCC(F)(F)F)cc1)CCN(C(=O)c1ccc(Br)c(Cl)c1)C2)c1ccc(OC(F)F)cc1F (stereo in doubt) [Example 317, 7-(4-bromo-3-chloro-benzoyl)-3-oxo-N-[rac-(1R)-1-[4-(difluoromethoxy)-2-fluoro-phenyl]ethyl]-2-[4-(2,2,2-trifluoroethoxy)phenyl]-6,8-dihydro-5H-imidazo[1,5-a]pyrazine-1-carboxamide] was tested. Which EC50 did it give?
**A.** 500 to 5000 nM

**Q.** COc1ccc(-n2c(C(=O)NCc3ccc(OC)cc3C3CC3)c3n(c2=O)CCN(C(=O)c2ccc(Br)c(Cl)c2)C3)cc1 [Example 210, 7-(4-bromo-3-chloro-benozyl)-N-[(2-cyclopropyl-4-methoxy-phenyl)methyl]-2-(4-methoxyphenyl)-3-oxo-6,8-dihydro-5H-imidazo[1,5-a]pyrazine-1-carboxamide] was tested. Which EC50 did it give?
**A.** 100 to 500 nM

**Q.** Which EC50 does the source give for CO[C@@H]1CN(Cc2ccccc2)Cc2c3n(c(=O)n2C1)CCN(C(=O)c1ccc(Br)c(Cl)c1)C3 (stereo in doubt) [Example 309, rac-(11R)-13-benzyl-4-(4-bromo-3-choro-benzoyl)-11-methoxy-4,7,9,13-tetrazatricyclo[7.5.0.0^2,7]tetradec-1-ene-8,14-dione] here?
**A.** 500 to 5000 nM

**Q.** How did the EC50 turn out when C[C@H](Oc1ccc([C@H](C)NC(=O)c2c3n(c(=O)n2-c2ccc(OCC(F)(F)F)cc2)CCN(C(=O)c2ccc(Br)c(Cl)c2)C3)c(F)c1)C(N)=O (stereo in doubt) [Example 362, 7-(4-bromo-3-chloro-benzoyl)-3-oxo-N-[rac-(1S)-1-[2-fluoro-4-[rac-(1S)-2-amino-1-methyl-2-oxo-ethoxy]phenyl]ethyl]-2-[4-(2,2,2-trifluoroethoxy)phenyl]-6,8-dihydro-5H-imidazo[1,5-a]pyrazine-1-carboxamide] was run?
**A.** 100 to 500 nM

**Q.** How did the EC50 turn out when COc1ccc(-n2c(C(=O)NCc3ccc(OC(C)C)cc3)c3n(c2=O)CCN(C(=O)c2ccc(Br)c(Cl)c2)C3)cc1 [Example 156, 7-(4-bromo-3-chloro-benzoyl)-N-[(4-isopropoxyphenyl)methyl]-2-(4-methoxyphenyl)-3-oxo-6,8-dihydro-5H-imidazo[1,5-a]pyrazine-1-carboxamide] was run?
**A.** 100 to 500 nM

**Q.** Which EC50 does the source give for Cn1ncc2cc(-n3c(C(=O)NCc4ccccc4)c4n(c3=O)CCN(C(=O)c3ccc(Br)c(Cl)c3)C4)ccc21 [Example 364, N-benzyl-7-(4-bromo-3-chloro-benzoyl)-2-(1-methylindazol-5-yl)-3-oxo-6,8-dihydro-5H-imidazo[1,5-a]pyrazine-1-carboxamide] here?
**A.** 100 to 500 nM

**Q.** How did the EC50 turn out when CC(NC(=O)c1c2n(c(=O)n1-c1ccc(OCC(F)(F)F)cc1)CCN(C(=O)c1ccc(Br)c(Cl)c1)C2)c1ccc(OC(F)(F)F)cc1F (racemic) [Example 293, 7-(4-bromo-3-chloro-benzoyl)-3-oxo-N-[rac-(1S)-1-[2-fluoro-4-(trifluoromethoxy)phenyl]ethyl]-2-[4-(2,2,2-trifluoroethoxy)phenyl]-6,8-dihydro-5H-imidazo[1,5-a]pyrazine-1-carboxamide] was run?
**A.** 500 to 5000 nM

**Q.** For C[C@H](NC(=O)c1c2n(c(=O)n1-c1ccc(OCC(F)(F)F)cc1)CCN(C(=O)c1ccc(Br)c(Cl)c1)C2)c1ccc(OC(F)F)cc1F (stereo in doubt) [Example 318, 7-(4-bromo-3-chloro-benzoyl)-3-oxo-N-[rac-(1S)-1-[4-(difluoromethoxy)-2-fluoro-phenyl]ethyl]-2-[4-(2,2,2-trifluoroethoxy)phenyl]-6,8-dihydro-5H-imidazo[1,5-a]pyrazine-1-carboxamide], which EC50 is on record?
**A.** 100 to 500 nM

**Q.** With C[C@@H](NC(=O)c1c2n(c(=O)n1-c1ccc(OC3CC3)cc1)CCN(C(=O)c1ccc(Br)c(Cl)c1)C2)c1ccc(OC(C)(C)C(N)=O)cc1F (stereo in doubt) [Example 339, 7-(4-bromo-3-chloro-benzoyl)-2-[4-(cyclopropoxy)phenyl]-3-oxo-N-[rac-(1R)-1-[4-(2-amino-1,1-dimethyl-2-oxo-ethoxy)-2-fluoro-phenyl]ethyl]-6,8-dihydro-5H-imidazo[1,5-a]pyrazine-1-carboxamide] as the compound, how does the EC50 read?
**A.** 100 to 500 nM

**Q.** Which EC50 does the source give for CC(C)COc1ccc(-n2c(C(=O)NCc3ccccc3)c3n(c2=O)CCN(C(=O)c2ccc(Br)c(Cl)c2)C3)cc1 [Example 272, N-benzyl-7-(4-bromo-3-chloro-benzoyl)-2-(4-isobutoxyphenyl)-3-oxo-6,8-dihydro-5H-imidazo[1,5-a]pyrazine-1-carboxamide] here?
**A.** 100 to 500 nM

**Q.** For COc1ccc(-n2c(C(=O)NCc3ccc(OC(F)F)cc3)c3n(c2=O)CCN(C(=O)c2ccc(Br)c(Cl)c2)C3)cc1 [Example 148, 7-(4-bromo-3-chloro-benzoyl)-N-[[4-(difluoromethoxy)phenyl]methyl]-2-(4-methoxyphenyl)-3-oxo-6,8-dihydro-5H-imidazo[1,5-a]pyrazine-1-carboxamide], which EC50 is on record?
**A.** 100 to 500 nM

**Q.** With COc1ccc(C(C)NC(=O)c2c3n(c(=O)n2-c2ccc(-n4cccn4)cc2)CCN(C(=O)c2ccc(Br)c(Cl)c2)C3)c(F)c1 (racemic) [Example 413, 7-(4-bromo-3-chloro-benzoyl)-3-oxo-2-(4-pyrazol-1-ylphenyl)-N-[rac-(1R)-1-(2-fluoro-4-methoxy-phenyl)ethyl]-6,8-dihydro-5H-imidazo[1,5-a]pyrazine-1-carboxamide] as the compound, how does the EC50 read?
**A.** < 100 nM

**Q.** How did the EC50 turn out when C[C@@H](NC(=O)c1[nH]c(=O)n2c1CN(C(=O)c1ccc(Br)c(Cl)c1)CC2)c1ccccc1 (racemic) [Example 188, 7-(4-bromo-3-chloro-benzoyl)-3-oxo-N-[rac-(1R)-1-phenylethyl]-2,5,6,8-tetrahydroimidazo[1,5-a]pyrazine-1-carboxamide] was run?
**A.** 500 to 5000 nM
